# In PMC5917010, “Structural basis for GPR40 allosteric agonism and incretin stimulation” (Nature Communications, 2018):
# Where “and” joins values, the source holds several entries; their conditions need not be identical. Identical values can stand only once. Like-named read-outs stand apart in the source and are kept apart here.
# Legend:
# human GPR40 (A2 site) = molecular target: T1, human GPR40 (A2 site) (Homo sapiens, UniProt O14842); test: A2 site radioligand binding with [3H]-AM-1638
# T1 construct: full length recombinant human GPR40 (GPR40) cDNA; expressed in transfected cells; host or cells: HEK 293, stably transfected; crude cell surface membranes
# Protocol: Crude cell surface membranes were prepared from human embryonic kidney 293 (HEK 293) cells stably transfected (for the wild type) or transiently transfected (for the mutants and corresponding wild type) with full length recombinant human GPR40 (GPR40) cDNA, using differential centrifugation methods.
# A2 Site Binding. 10 µL of compound diluted in 100% DMSO and 90 µL of Assay Buffer (50 mM Tris-HCl, pH 7.5, 10 mM CaCl2, 10 mM MgCl2, 0.1% w/v Bacitracin, 2.5% w/v dextran charcoal-treated FBS) were added to a deep 96-well polypropylene assay plate (Beckman Coulter). Two hundred μl of [^3H]-AM-1638 (84 Ci/mmol, Quotient Bioresearch Radiochemicals, Ltd.; 0.5 nM final concentration) and 200 µL of GPR40 membranes (5 µg/well), both diluted in Assay Buffer, were added to the assay plate, followed by a 1 min shake and a 1 h incubation at room temperature (22 °C).
# Assays were terminated by filtration through GF/C glass fiber filtermats (Perkin Elmer) presoaked in 50 mM Tris–HCl, pH 7.5, using a Mach III cell harvester (TomTec). Filtermats were washed two times with 5 mL of ice-cold 50 mM Tris–HCl, pH 7.5 buffer, dried 1 h in a convection oven at 60 °C and embedded with Meltilex A solid scintillant (Perkin Elmer). Radioactivity was determined as counts per min (cpm) using a Trilux Microbeta plate scintillation counter (Perkin Elmer).
# human GPR40 [1] = molecular target: T2, human GPR40 (Homo sapiens, UniProt O14842); test: Ca2+ mobilization assay (FLIPR), HEK293 cells stably overexpressing GPR40; format: cell-based; details: for Ca2+ mobilization (FLIPR) Top: relative to 500 µM linoleic acid; for agonist type in Ca2+ mobilization assay: relative to 500 µM of the natural ligand, linoleic acid
# T2 construct: HEK293 cells stably overexpressing full length human GPR40; expressed in transfected cells
# Protocol: HEK293 cells stably overexpressing full length human GPR40 were plated (50K cells/well) into 96-well microtiter plates using Dulbecco’s Modified Eagle’s Medium (DMEM) supplemented with 10% certified fetal bovine serum (FBS), 20 mM HEPES, pH 7.4, 1 mM Sodium Pyruvate, 100 U/mL Penicillin, 100 µg/mL Streptomycin, and 800 µg/mL Geneticin. The cells were incubated overnight at 37 °C and 5% CO2. Calcium 4 dye (Molecular Devices) diluted in assay buffer was added (100 µL per well) to the cell plates, followed by a 1 h incubation in the dark at 25 °C. Test compounds were serially diluted three-fold in 100% DMSO and immediately diluted in assay buffer. […] Receptor activation was immediately measured as an increase in intracellular calcium using the FLIPR® over 3 min. To determine agonist responses, relative fluorescence units (RFUs) over 60 reads were calculated per well and used to calculate percent stimulation relative to 500 µM of the natural ligand, linoleic acid, response. EC50 values were calculated by plotting test compound concentration vs. percent stimulation using a 4-parameter logistic curve fitting equation.
# wild type C57BL/6 mice = test: Oral glucose tolerance test (OGTT) in wild type C57BL/6 mice; format: in vivo, mouse
# Protocol: (§1) Eight to thirteen week old male C57BL/6 or KO mice were used. The day before the study, at 1600 hours, animals were transferred into clean cages and food was removed. The following morning (~0800 hours), mice were randomized by block randomization to treatment groups (N = 5–7 per group) so each group had similar mean and standard deviation of body weight and blood glucose. […] Animals were dosed with vehicle (0.5% MC/0.25% Tween-80) or the test article by oral gavage. Group allocations were not blinded from the experimenters who collected the data. After 60 min compound treatment animals were then given an oral gavage of glucose (2 g/kg). At 0, 15, 30, 60, and 120 min post oral glucose, two glucose readings via glucometers were obtained. The average of two glucose readings was reported at each time point. Data were expressed as mean±standard error (s.e.m.). Blood glucose values were analyzed using ANOVA with repeated measures. Cook’s distance was also calculated from linear regression. All animals were included in the analysis with their individual averaged Cook’s distance < 1. Dunnett’s comparison was performed at each time point by R program. Significance is denoted at p < 0.05.
# Human GPR120 = molecular target: T3, Human GPR120 (Homo sapiens, UniProt Q5NUL3); test: Human GPR120 binding; details: Supplementary Table 1
# T3 sequence (Q5NUL3 1-361): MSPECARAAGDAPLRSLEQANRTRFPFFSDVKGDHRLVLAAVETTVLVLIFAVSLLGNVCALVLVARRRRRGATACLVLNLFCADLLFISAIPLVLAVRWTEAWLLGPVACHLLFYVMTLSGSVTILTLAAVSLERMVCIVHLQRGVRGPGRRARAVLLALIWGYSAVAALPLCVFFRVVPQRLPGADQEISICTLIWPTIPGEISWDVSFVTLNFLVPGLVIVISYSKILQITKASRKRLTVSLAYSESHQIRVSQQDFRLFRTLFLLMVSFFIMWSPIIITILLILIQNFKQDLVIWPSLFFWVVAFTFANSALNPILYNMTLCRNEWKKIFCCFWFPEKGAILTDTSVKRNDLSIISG
# human PPARdelta = molecular target: T4, human PPARdelta (Homo sapiens, UniProt Q03181); test: human PPARdelta binding; details: Supplementary Table 1
# T4 sequence (Q03181 1-441): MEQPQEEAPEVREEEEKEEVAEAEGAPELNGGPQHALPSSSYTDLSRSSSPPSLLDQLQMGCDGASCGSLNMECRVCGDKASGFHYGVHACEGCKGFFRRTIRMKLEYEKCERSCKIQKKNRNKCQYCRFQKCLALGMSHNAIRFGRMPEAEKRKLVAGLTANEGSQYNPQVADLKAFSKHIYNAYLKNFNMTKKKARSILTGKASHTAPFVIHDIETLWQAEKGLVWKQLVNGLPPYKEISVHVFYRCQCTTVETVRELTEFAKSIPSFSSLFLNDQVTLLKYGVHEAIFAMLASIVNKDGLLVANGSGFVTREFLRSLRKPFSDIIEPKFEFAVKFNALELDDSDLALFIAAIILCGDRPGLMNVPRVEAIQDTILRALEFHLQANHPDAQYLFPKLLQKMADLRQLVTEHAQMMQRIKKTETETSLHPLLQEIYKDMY
# GPR40 KO mice = test: OGTT in GPR40 KO mice; format: in vivo, mouse; details: high dose of compound 1
# Protocol: as §1
# human GPR40 [2] = molecular target: T2, human GPR40; test: Human GPR40 IP1; format: cell-based
# GPR40 Y44F = GPR40 Y44F (Homo sapiens, UniProt O14842, Y44F); test: cAMP accumulation assay, Y44F mutant
# Chain of GPR40 Y44F (O14842 whole entry Y44F): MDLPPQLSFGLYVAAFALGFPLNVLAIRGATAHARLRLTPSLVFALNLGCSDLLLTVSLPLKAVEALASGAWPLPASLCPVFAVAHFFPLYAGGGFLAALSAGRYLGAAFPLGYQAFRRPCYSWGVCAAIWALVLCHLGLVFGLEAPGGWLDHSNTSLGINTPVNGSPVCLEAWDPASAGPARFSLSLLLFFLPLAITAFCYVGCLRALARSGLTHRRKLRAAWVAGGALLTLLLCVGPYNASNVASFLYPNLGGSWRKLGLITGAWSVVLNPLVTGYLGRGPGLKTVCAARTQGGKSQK
# Protocol: HEK293 cells transiently transfected with Promega’s cAMP response element (CRE/luc2P) and a GPR40 construct were plated (40K cells/well) into 96-well microtiter plates using Dulbecco’s Modified Eagle’s Medium (DMEM) supplemented with 10% FBS, 20 mM HEPES, pH 7.4, 100 U/mL Penicillin, 100 µg/mL Streptomycin, and 800 µg/mL Geneticin. Test compounds were serially diluted three-fold in 100% DMSO and immediately diluted in media. […] EC50 values were calculated using a four-parameter logistic curve fitting equation.
# T1 sequence (O14842 whole entry): as the sequence (O14842 whole entry Y44F) above, with F44Y counted along it
# T2 sequence (O14842 whole entry): as the sequence (O14842 whole entry Y44F) above, with F44Y counted along it
Compound,"effect on [3H]-AM-1638 binding (human GPR40 (A2 site); addition of unlabeled compound, Supplementary Fig. 1a)",Ca2+ mobilization (FLIPR) Top (human GPR40 [1]) [%],agonist type in Ca2+ mobilization assay (human GPR40 [1]),glucose in OGTT (wild type C57BL/6 mice; 30 and 60 mg kg-1),Ki (Human GPR120) [nM],IC50 (human PPARdelta) [nM],"Ki (human GPR40 (A2 site); Supplementary Table 1, read-out: Human GPR40 Binding to A2 Ki) [nM]","Ki (human GPR40 (A2 site); competitive radioligand binding, membranes from stably transfected cells, Fig. 1a, read-out: Ki in [3H]-AM-1638 binding) [nM]","EC50 (human GPR40 [1]; GPR40-Gαq signaling, stably transfected cells, no TAK-875)","cooperativity composite factor (Log αβ) (human GPR40 [1]; compound 1 with TAK-875, operational model, slope constrained to 1)",efficacy modulation cooperativity factor (β) (human GPR40 [1]; cooperativity between TAK-875 and compound 1),"average α-factor (human GPR40 [1]; cooperativity between TAK-875 and compound 1, averages from Figs. 1a and 8a)",glucose excursion in OGTT (wild type C57BL/6 mice; various oral doses),"blood glucose in OGTT, GPR40 KO (GPR40 KO mice)",EC50 (human GPR40 [2]) [nM],Emax (human GPR40 [2]) [%],EC50 (GPR40 Y44F) [nM]
Cc1cc(OCCCS(C)(=O)=O)cc(C)c1-c1cccc(COc2ccc3c(c2)OC[C@H]3CC(=O)O)c1 [TAK-875],enhanced,81.67,partial agonist,Decreases in glucose,> 100000,> 10000,–,–,–,–,–,–,–,–,–,–,–
COc1ccc(C(=O)N(CC(C)(C)C)c2cccc(C)n2)c(N2CCC(c3cc4ccc([C@@H](CC(=O)O)C5CC5)cc4o3)CC2)c1 [compound 1],–,136.3,full agonist,–,> 100000,> 10000,0.9,0.81,72 nM and ~72 nM,1.46,14,2.1,Dose dependent decreases in glucose excursion,No change in blood glucose,< 0.05,484,> 30000
